Reference: patent publication US20060134794A1, “Method of detecting the presence and/or progression of cancer” (priority 2004, published 2006)

Legend:
[1] = target: T1, tNOX (Homo sapiens, UniProt Q16206); test: NOX assay with human mammary adenocarcinoma (BT-20) cells: tNOX; format: cell-based; design: endogenous in cells; conditions: 100 μM AgO; 2×10^6 BT-20 cells
T1 sequence (Q16206 1-610): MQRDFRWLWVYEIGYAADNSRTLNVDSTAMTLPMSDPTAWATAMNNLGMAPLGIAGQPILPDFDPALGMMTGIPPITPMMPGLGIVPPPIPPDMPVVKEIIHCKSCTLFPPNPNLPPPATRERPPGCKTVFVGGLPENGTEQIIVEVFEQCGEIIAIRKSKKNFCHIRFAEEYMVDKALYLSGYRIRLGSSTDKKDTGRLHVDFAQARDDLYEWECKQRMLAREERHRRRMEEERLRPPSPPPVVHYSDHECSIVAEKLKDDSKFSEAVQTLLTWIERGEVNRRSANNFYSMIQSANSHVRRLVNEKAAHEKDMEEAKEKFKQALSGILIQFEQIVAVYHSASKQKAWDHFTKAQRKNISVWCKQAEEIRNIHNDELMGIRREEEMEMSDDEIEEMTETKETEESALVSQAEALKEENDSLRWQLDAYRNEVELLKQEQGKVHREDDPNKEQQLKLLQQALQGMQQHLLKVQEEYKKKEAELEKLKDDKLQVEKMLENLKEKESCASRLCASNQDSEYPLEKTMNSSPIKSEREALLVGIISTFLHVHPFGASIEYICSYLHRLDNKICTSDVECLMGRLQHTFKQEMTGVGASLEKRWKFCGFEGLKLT
Protocol: (§1) FIG. 5 presents results from an assay using 2×10^6 human mammary adenocarcinoma (BT-20) cells carried out as described for FIG. 2. Panel A (no addition) received only the phosphoric acid (0.0017%).
(§2) Growth of cells. Cells were grown in culture in a humidified atmosphere of 5% CO2 in air at 37° C. Media were renewed every 2 to 3 days. HeLa (ATCC CCL2) cells were grown in 175-cm^2 flasks in Minimal Essential Medium (Gibco), pH 7.4 at 37° with 10% fetal bovine serum (heat-inactivated), plus 50 mg/L gentamycin sulfate (Sigma). Cells were harvested by scraping and taken up in 140 mM NaCl, 5 mM KCl, 0.7 mM Na2HPO4 and 25 mM Tris, pH 7.4, to a final cell concentration of 0.1 g wet weight (gww) per mL. MCF-10A human mammary epithelial cells were cultured in a 1:1 mixture of Ham's F12 medium and Dulbecco's Modified Eagle's medium containing glutamine (Z92 mg/L), hydrocortisone (0.5 μg/mL), EGF (20 ng/mL), and 5% horse serum. Medium was renewed every 2-3 days. […]
(§3) Spectrophotometric assay of NADH Oxidase. NAD(P)H oxidase activities were measured using paired Hitachi U3210 spectrophotometers over successive 5-minutes intervals (two to four or more at low inhibitory concentrations) at 37° C. The activity was determined as the disappearance of NAD(P)H measured at 340 nm. […]

[2] = target: T2, constitutive CNOX (Homo sapiens, UniProt Q8TC92); test: NOX assay with human mammary adenocarcinoma (BT-20) cells: CNOX; format: cell-based; design: endogenous in cells; conditions: 100 μM AgO; 2×10^6 BT-20 cells
T2 sequence (Q8TC92 1-643): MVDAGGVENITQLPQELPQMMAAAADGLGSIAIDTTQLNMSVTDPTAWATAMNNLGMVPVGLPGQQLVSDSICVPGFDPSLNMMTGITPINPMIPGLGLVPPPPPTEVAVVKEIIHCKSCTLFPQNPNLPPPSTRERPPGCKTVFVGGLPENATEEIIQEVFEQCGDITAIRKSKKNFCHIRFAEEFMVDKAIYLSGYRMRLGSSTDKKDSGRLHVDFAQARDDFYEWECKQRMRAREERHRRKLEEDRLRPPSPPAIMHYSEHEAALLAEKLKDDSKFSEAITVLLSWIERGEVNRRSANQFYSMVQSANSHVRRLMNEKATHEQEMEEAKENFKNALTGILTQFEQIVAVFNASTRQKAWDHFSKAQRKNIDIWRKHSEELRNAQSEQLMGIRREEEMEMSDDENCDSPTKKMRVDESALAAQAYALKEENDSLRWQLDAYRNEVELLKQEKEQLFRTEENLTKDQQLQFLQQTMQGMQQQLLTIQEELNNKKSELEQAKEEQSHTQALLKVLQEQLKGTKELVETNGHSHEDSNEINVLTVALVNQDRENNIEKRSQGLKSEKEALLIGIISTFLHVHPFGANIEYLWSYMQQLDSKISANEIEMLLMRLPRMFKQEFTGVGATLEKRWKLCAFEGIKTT
Protocol: as §1, §2, §3

[3] = test system: age-related NOX (arNOX); test: NOX assay with human mammary epithelial (non-cancer) MCF-10A cells: arNOX; format: cell-based; conditions: 100 μM AgO added in 1.7% phosphoric acid; late passage MCF-10A cells
Protocol: (§4) FIG. 6 is as for FIG. 5 except that the assay was with 10^6 human mammary epithelial (non-cancer) MCF-10A cells. These cells lacked tNOX as their surface and contained predominantly a constitutive CNOX (single arrows) which was not inhibited by the 100 μM AgO added in 1.7% phosphoric acid. The MCF-10A cells were late passage cells and contained, as well, an age-related NOX (arNOX) with a period length of 26 minutes. This activity was inhibited by the AgO as shown in Panel B.
as §2, with “mL.” for “mL. MCF-10A human mammary epithelial cells were cultured in a 1:1 mixture of Ham's F12 medium and Dulbecco's Modified Eagle's medium containing glutamine (Z92 mg/L), hydrocortisone (0.5 μg/mL), EGF (20 ng/mL), and 5% horse serum. Medium was renewed every 2-3 days.”
as §3

[4] = target: T2, constitutive CNOX; test: NOX assay with human mammary epithelial (non-cancer) MCF-10A cells: CNOX; format: cell-based; design: solubilized ECTO-NOX activities released from the surface of HeLa cells by treatment at pH 5; endogenous in cells; host or cells: HeLa S cells, cell-free pH 5 extract; conditions: 100 μM AgO added in 1.7% phosphoric acid; 10^6 MCF-10A cells
Protocol: as §4
as §2, with “mL.” for “mL. MCF-10A human mammary epithelial cells were cultured in a 1:1 mixture of Ham's F12 medium and Dulbecco's Modified Eagle's medium containing glutamine (Z92 mg/L), hydrocortisone (0.5 μg/mL), EGF (20 ng/mL), and 5% horse serum. Medium was renewed every 2-3 days.”
as §3

[5] = target: T3, recombinant form of tNOX (nus tNOX) (Homo sapiens, UniProt Q16206); test: standard NOX assay (oxidation of NADH, decrease in A340) with recombinant tNOX; format: biochemical; conditions: 100 μM AgO in 1.7% phosphoric acid added after 45 minutes; 25° C
T3 construct: nus tag
T3 sequence (Q16206 1-610): T1 sequence (Q16206 1-610)
Protocol: In panel A, an equivalent amount of phosphoric acid was added. The assay measured oxidation of NADH (decrease in A340) in a standard NOX assay at 25° C.
(§5) Spectrophotometric assay of NADH Oxidase. NAD(P)H oxidase activities were measured using paired Hitachi U3210 spectrophotometers over successive 5-minutes intervals (two to four or more at low inhibitory concentrations) at 37° C. The activity was determined as the disappearance of NAD(P)H measured at 340 nm. The reaction mixture included sample, 50 mM Tris-MES, pH 7.0, 2 mM KCN, and 150 μM NAD(P)H in a total volume of 2.5 ml at 37° C. with stirring. A millimolar extinction coefficient of 6.22 was used to determine NAD(P)H disappearance.

[6] = target: T2, constitutive CNOX; test: NOX (NADH oxidase) assay of solubilized ECTO-NOX activities released from the surface of HeLa cells: CNOX; format: biochemical; design: solubilized ECTO-NOX activities released from the surface of HeLa cells by treatment at pH 5; endogenous in cells; host or cells: HeLa S cells, cell-free pH 5 extract
Protocol: (§6) FIG. 2 is similar to FIG. 1 except that a preparation of solubilized ECTO-NOX activities released from the surface of HeLa cells by treatment at pH 5 (del Castillo-Olivares et al., Arch. Biochem. Biophys. 358: 125-140, 1998) was used as the enzyme source. The AgO was dissolved in DMSO added at a final concentration of AgO of 1 mM. The final concentration of DMSO added in both A and B after 45 minutes was 0.1%. The assays were then continued for and additional 45 minutes. The HeLa extracts contain both the constitutive CNOX (single arrows denoting a 24 minutes period length) and two activity maxima separated by 6 minutes and labeled (1) and (2) which are tNOX (double arrows). With addition of AgO, both tNOX activities are inhibited while the constitutive CNOX remain unaffected. Values are based on three experiments and report means±standard deviations to establish statistical reliability of the data.
FIG. 3 represents the response of total NOX (NADH oxidase) activity of the preparation of FIG. 2 as a function of the logarithm of AgO concentration. […]
as §3

[7] = test system: constitutive CNOX; test: NOX assay with solubilized soybean plasma membranes; format: biochemical, soybean (Glycine max); conditions: plasma membranes solubilized in 0.1% Triton X-100 overnight
Protocol: FIG. 7 is similar to FIG. 6 except that plasma membranes isolated from etiolated hypocotyls (stems) of soybean (Glycine max) were the enzyme source. The plasma membranes were solubilized in 0.1% Triton X-100 overnight prior to assay. The soybean plasma membranes contain only a constitutive CNOX which is unresponsive to AgO.
as §5

[8] = target: T1, tNOX; test: NOX (NADH oxidase) assay of solubilized ECTO-NOX activities released from the surface of HeLa cells: tNOX; format: biochemical; design: solubilized ECTO-NOX activities released from the surface of HeLa cells by treatment at pH 5; endogenous in cells; host or cells: HeLa S cells, cell-free pH 5 extract
Protocol: as §6
FIG. 3 represents the response of total NOX (NADH oxidase) activity of the preparation of FIG. 2 as a function of the logarithm of AgO concentration. The AgO was dissolved in 1.7% phosphoric acid and the dilutions were prepared in water. […] The EC50 of tNOX inhibition was estimated to be about 5 μM.
as §5
Preparation of HeLa Cells and Cell-Free Extracts. HeLa S cells were collected by centrifugation and shipped frozen in 0.1 M sodium acetate, pH 5, in a ratio of 1 mL of packed cell volume to 1 mL of acetate (Cellex Biosciences). The cells were thawed at room temperature, resuspended, and incutated at 37° for 1 hr to release the protein. […]

[9] = test system: aging-related isoform (arNOX); conditions: previous findings described in the background; cited from earlier work
[10] = AgO dissolved in DMSO, final concentration 1 mM, added after 45 minutes

SMILES	inhibition of the two activity maxima associated with tNOX [1]	effect on constitutive CNOX [2]	inhibition of age-related NOX (arNOX) activity [3]	inhibition of constitutive CNOX [4]	inhibition of recombinant tNOX NADH oxidase activity [5]	inhibition of constitutive CNOX ([6]; AgO concentration series in 1.7% phosphoric acid/water)	effect on constitutive CNOX activity [6, 10]	response of constitutive CNOX to AgO [7]	inhibition of tNOX ([8]; AgO concentration of 100 μM (10^−4M))	EC50 ([8]; AgO dissolved in 1.7% phosphoric acid, dilutions in water, estimated from total NOX activity, read-out: EC50 of tNOX inhibition)	inhibition of tNOX activities [8, 10]	effect on generation of superoxide by arNOX [9]
[O]=[Ag] [AgO, silver (II) oxide]	inhibited	without effect	inhibited	not inhibited	inhibited completely	not inhibited	unaffected	unresponsive	completely inhibited	~5 µM	inhibited	–
COC1=C(OC)C(=O)C(C/C=C(\C)CC/C=C(\C)CC/C=C(\C)CC/C=C(\C)CC/C=C(\C)CC/C=C(\C)CC/C=C(\C)CC/C=C(\C)CC/C=C(\C)CCC=C(C)C)=C(C)C1=O [coenzyme Q]	–	–	–	–	–	–	–	–	–	–	–	inhibition
